Reference: ChEMBL document CHEMBL1201862, “PubChem BioAssay data set” (2004)
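Dose response: 5 concentrations. Exposure: 48 h. Format: 96-well plates. Endpoint: linear interpolation; highest concentration if not reached. At the GI50, growth is halved.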 Calls of active or inactive are those of the source. No stated cut-off is given here; in the data, active = GI50 up to about 1.1 µM and inactive = higher.

How the values were obtained:
Assay in all cases: NCI tumour cell line growth inhibition, 48 h
[1] = tested on: OVCAR-5
[2] = tested on: A549
[3] = tested on: HT-29
[4] = tested on: COLO 205
[5] = tested on: NCI/ADR-RES
[6] = tested on: HCT-116
[7] = tested on: RXF 393
[8] = tested on: DU-145
[9] = tested on: NCI-H23
[10] = tested on: SF-295
[11] = tested on: SK-MEL-28
[12] = tested on: IGROV-1
[13] = tested on: UO-31
[14] = tested on: ACHN
[15] = tested on: CAKI-1
[16] = tested on: KM12
[17] = tested on: OVCAR-8
[18] = tested on: TK-10
[19] = tested on: SNB-75
[20] = tested on: SK-MEL-2

Measured: GI50

O=[N+]([O-])C1CC/C(=N/O)c2nonc21 (stereo unspecified)
inactive: [1] > 10 µM | [2] > 10 µM | [3] > 10 µM | [4] > 10 µM | [5] > 10 µM | [6] > 10 µM | [7] > 10 µM | [8] > 10 µM | [9] > 10 µM | [10] > 10 µM | [11] > 10 µM | [12] > 10 µM | [13] > 10 µM | [14] > 10 µM | [15] > 10 µM | [16] > 10 µM | [17] > 10 µM | [18] > 10 µM

COc1ccc(-c2nc(-c3cnccn3)n(C3OC(CO)C(O)C(O)C3O)n2)cc1 (stereo unspecified)
inactive: [1] > 100 µM | [2] > 100 µM | [3] > 100 µM | [4] > 100 µM | [5] > 100 µM | [6] > 100 µM | [7] > 100 µM | [8] > 100 µM | [19] > 100 µM | [9] > 100 µM | [10] > 100 µM | [11] > 100 µM | [12] > 100 µM | [13] > 100 µM | [16] > 100 µM | [17] > 100 µM | [18] > 100 µM

CCOC(=O)C1CCC(=O)N1C(=O)c1ccc(Cl)cc1 (stereo unspecified)
inactive: [1] > 100 µM | [2] > 100 µM | [3] > 100 µM | [5] > 100 µM | [6] > 100 µM | [7] > 100 µM | [8] > 100 µM | [19] > 100 µM | [9] > 100 µM | [10] > 100 µM | [11] > 100 µM | [12] > 100 µM | [13] > 100 µM | [14] > 100 µM | [15] > 100 µM | [16] > 100 µM | [17] > 100 µM

c1ccc(C2SCC3=Nc4ccccc4CN32)cc1 (stereo unspecified)
inactive: [1] 25.8 µM | [2] 53.8 µM | [3] 17.8 µM | [4] 19.4 µM | [5] 17.5 µM | [6] 14.8 µM | [7] 10.8 µM | [8] 24.9 µM | [19] 30.5 µM | [9] 16.6 µM | [10] 14.7 µM | [11] 50.4 µM | [13] 29.9 µM | [15] > 100 µM | [16] 43.5 µM | [17] 18.2 µM | [18] 75.2 µM

COc1ccc2c(c1)c1c(n2CCN(C)C)-c2cccc(OC)c2CC1
inactive: [1] 15.7 µM | [2] 12.3 µM | [3] 3.3 µM | [4] 6.62 µM | [20] 15.6 µM | [5] 17.5 µM | [6] 13.3 µM | [8] 17.7 µM | [19] 5.43 µM | [9] 18.8 µM | [10] 13.5 µM | [11] 14.2 µM | [12] 18.5 µM | [13] 14.9 µM | [14] 17.9 µM | [15] 13.1 µM | [16] 11.2 µM | [17] 18.7 µM | [18] 19.2 µM

COc1cc2c3c4[n+](cc2c(OC)c1OC)CCC4CCC3 (stereo unspecified)
inactive: [1] > 100 µM | [2] > 100 µM | [3] > 100 µM | [4] 34.7 µM | [20] > 95.1 µM | [5] > 100 µM | [6] > 100 µM | [7] > 84.3 µM | [8] > 100 µM | [9] 98.9 µM | [10] > 100 µM | [11] > 100 µM | [12] > 100 µM | [13] > 100 µM | [14] > 100 µM | [15] > 100 µM | [16] 47.4 µM | [17] > 100 µM | [18] > 100 µM

CC(=O)c1ccc(N2CCN(C3=CC(=O)c4c(O)ccc(O)c4C3=O)CC2)cc1
inactive: [1] > 100 µM | [2] 19 µM | [3] 30.2 µM | [4] 35.5 µM | [5] 3.44 µM | [6] 7.57 µM | [7] 47.8 µM | [8] > 100 µM | [19] 24.2 µM | [9] 34 µM | [10] 35 µM | [11] > 100 µM | [12] 45.9 µM | [13] 4.42 µM | [15] > 100 µM | [16] 51.8 µM | [17] 13.1 µM | [18] 61 µM

N#Cc1cc(Sc2ccc(N)c(C#N)c2)ccc1N
inactive: [1] 29.3 µM | [2] 29.9 µM | [3] 13.6 µM | [4] 8.59 µM | [20] 30.3 µM | [5] 13.3 µM | [6] 12.1 µM | [7] 29.4 µM | [8] 24.9 µM | [10] 17.6 µM | [11] 55.2 µM | [12] 25.1 µM | [13] 17.7 µM | [14] 31.2 µM | [16] 8.63 µM | [17] 20.4 µM | [18] 65.6 µM

COc1cc2c(c(OC3OC(CO)C(O)C(O)C3O)c1)C(=O)CC(c1ccc(O)cc1)O2 (stereo unspecified)
inactive: [1] > 100 µM | [2] > 100 µM | [3] > 100 µM | [4] > 100 µM | [20] > 100 µM | [5] > 100 µM | [6] > 100 µM | [8] > 100 µM | [19] > 100 µM | [9] > 100 µM | [10] > 100 µM | [11] > 100 µM | [12] > 100 µM | [13] > 100 µM | [14] > 100 µM | [15] > 100 µM | [16] > 100 µM | [17] > 100 µM | [18] > 100 µM

O=C(NCC(O)COc1ccccc1)c1ccccc1O (stereo unspecified)
inactive: [1] > 100 µM | [2] > 100 µM | [4] > 100 µM | [20] > 100 µM | [5] 58.6 µM | [6] > 100 µM | [7] > 100 µM | [8] > 100 µM | [9] > 100 µM | [10] > 100 µM | [11] > 100 µM | [12] > 100 µM | [13] 47.8 µM | [14] > 100 µM | [15] > 100 µM | [16] > 100 µM | [17] > 100 µM | [18] > 100 µM

c1ccc(CCN2CCOCC2)nc1
inactive: [1] > 100 µM | [2] > 100 µM | [3] > 100 µM | [4] > 100 µM | [20] > 100 µM | [5] > 100 µM | [6] > 100 µM | [7] > 100 µM | [8] > 100 µM | [9] > 100 µM | [10] > 100 µM | [11] > 100 µM | [12] > 100 µM | [13] > 100 µM | [14] > 100 µM | [15] > 100 µM | [16] > 100 µM | [17] > 100 µM | [18] > 100 µM

CC1(C)C2CC(=O)C1(C)C(OCc1ccccc1)C2 (stereo unspecified)
inactive: [1] 29.4 µM | [2] 74.3 µM | [3] 40.6 µM | [4] 29.6 µM | [20] > 100 µM | [5] 28.6 µM | [6] 25.1 µM | [8] > 100 µM | [19] 34.2 µM | [9] 27.2 µM | [10] 68.7 µM | [11] 94.2 µM | [12] > 100 µM | [13] 62.7 µM | [14] > 100 µM | [15] 40.6 µM | [16] 60.8 µM | [17] > 100 µM | [18] 23.4 µM

CC(C)(C)c1cc2c(c(C(C)(C)C)c1O)CC(=O)O2
inactive: [1] 71.6 µM | [2] 31.2 µM | [3] 28.3 µM | [4] 22.2 µM | [20] 21.5 µM | [5] 21.1 µM | [6] 30.1 µM | [7] 22.1 µM | [8] 47.5 µM | [9] 19.8 µM | [10] 32.2 µM | [11] 40.6 µM | [12] 40.1 µM | [13] 26.3 µM | [14] 22.8 µM | [16] 20.7 µM | [17] 32.2 µM | [18] 30.4 µM

COC(=O)c1c(O)ccc2c1c1c(n2Cc2ccc(OC)cc2)C(=O)c2ccccc2C1
inactive: [2] 45.9 µM | [3] 21.7 µM | [4] 16.9 µM | [20] 62.5 µM | [5] 32.9 µM | [6] 60.4 µM | [7] 20.3 µM | [8] > 100 µM | [19] 51.2 µM | [9] 63.4 µM | [10] 47.4 µM | [11] > 100 µM | [12] 21.6 µM | [13] 41.6 µM | [15] 20.6 µM | [16] 63.7 µM | [17] > 100 µM | [18] 84.1 µM

CNc1ncnc2c1nc(NC1CCCC1)n2C1OC(CO)C(O)C1O (stereo unspecified)
inactive: [1] > 100 µM | [2] > 100 µM | [3] > 100 µM | [4] > 100 µM | [20] > 100 µM | [5] > 100 µM | [6] > 100 µM | [7] > 100 µM | [8] > 100 µM | [9] > 100 µM | [10] > 100 µM | [11] > 100 µM | [13] > 100 µM | [14] > 100 µM | [15] > 100 µM | [16] > 100 µM | [17] > 100 µM | [18] > 100 µM
